Structures can show the parent of a compound that is named as a salt.
Biological target: SSTR5 (Homo sapiens (Human), UniProt P35346)
Experiment: SSTR5 binding assay
Settings: CHO-K1 membranes expressing cloned human SSTR5
Method in brief: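 Competition binding on membranes from CHO-K1 cells stably expressing cloned human receptor, using radiolabeled somatostatin in 50 mM Tris-HCl pH 7.8 with EGTA, MgCl2 and protease inhibitors. Unlabeled compounds tested from 0.01 nM to 10,000 nM.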

Chain of SSTR5 (P35346 whole entry): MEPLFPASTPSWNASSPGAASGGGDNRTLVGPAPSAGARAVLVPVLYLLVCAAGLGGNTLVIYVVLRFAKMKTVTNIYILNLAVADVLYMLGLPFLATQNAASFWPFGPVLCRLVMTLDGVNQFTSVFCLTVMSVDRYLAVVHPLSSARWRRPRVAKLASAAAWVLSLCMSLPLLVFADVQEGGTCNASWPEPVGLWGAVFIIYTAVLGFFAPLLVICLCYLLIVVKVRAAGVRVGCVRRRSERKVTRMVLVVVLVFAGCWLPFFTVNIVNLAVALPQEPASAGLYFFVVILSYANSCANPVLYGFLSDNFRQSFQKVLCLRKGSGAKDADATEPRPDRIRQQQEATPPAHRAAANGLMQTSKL

Compound	IC50 [nM]
Cc1ccc(-n2cc(CN3CCC4(CC3)CN(c3ccc(C(=O)O)cc3)C(=O)O4)c(-c3ccc(F)c(F)c3F)n2)c(C)c1 [Example 1-6, 4-(8-{[1-(2,4-Dimethylphenyl)-3-(2,3,4-trifluorophenyl)-1H-pyrazol-4-yl]methyl}-2-oxo-1-oxa-3,8-diazaspiro[4.5]dec-3-yl)benzoic acid, TFA salt]	1.54
Cn1cc(-c2cc(F)c(F)cc2F)c(CN2CCC3(CC2)CN(c2ccc(C(=O)O)cc2)C(=O)O3)n1 [Example 2-2, 4-(8-{[1-Methyl-4-(2,4,5-trifluorophenyl)-1H-pyrazol-3-yl]methyl}-2-oxo-1-oxa-3,8-diazaspiro[4.5]dec-3-yl)benzoic acid, TFA salt]	4320
CCOc1cc(CN2CCC3(CC2)CN(c2ccc(C(=O)O)c(C(F)(F)F)c2)C(=O)O3)cc(OCC)c1-c1ccc(F)cc1 [Example 3-15, 4-{8-[(2,6-Diethoxy-4′-fluorobiphenyl-4-yl)methyl]-2-oxo-1-oxa-3,8-diazaspiro[4.5]dec-3-yl}-2-(trifluoromethyl)benzoic acid, TFA salt]	2.79
COc1ccc2c(CN3CCC4(CC3)CN(c3ccc(C(=O)O)cc3)C(=O)O4)c[nH]c2c1 [Example 6-22, 4-{8-[(6-Methoxy-1H-indol-3-yl)methyl]-2-oxo-1-oxa-3,8-diazaspiro[4.5]dec-3-yl}benzoic acid, TFA salt]	8.64
CC(C)n1nc(Cc2cc(F)c(F)cc2F)c(CN2CCC3(CC2)CN(c2ccc(C(=O)O)cc2)C(=O)O3)c1Cl [Example 1-45, 4-(8-{[5-Chloro-1-(propan-2-yl)-3-(2,4,5-trifluorobenzyl)-1H-pyrazol-4-yl]methyl}-2-oxo-1-oxa-3,8-diazaspiro[4.5]dec-3-yl)benzoic acid, TFA salt]	23
COc1ccc(-c2nn(C3CC3)cc2CN2CCC3(CC2)CN(c2ccc(C(=O)O)cc2)C(=O)O3)cc1 [Example 1-4, 4-(8-{[1-Cyclopropyl-3-(4-methoxyphenyl)-1,1-pyrazol-4-yl]methyl}-2-oxo-1-oxa-3,8-diazaspiro[4.5]dec-3-yl)benzoic acid, TFA salt]	4.59
CC(C)(C)n1cc(CN2CCC3(CC2)CN(c2ccc(C(=O)O)cn2)C(=O)O3)c(-c2ccc(F)c(F)c2F)n1 [Example 1-43, 6-(8-{[1-tert-Butyl-3-(2,3,4-trifluorophenyl)-1H-pyrazol-4-yl]methyl}-2-oxo-1-oxa-3,8-diazaspiro[4.5]dec-3-yl)pyridine-3-carboxylic acid, TFA salt]	2.88
Cc1cc(C(=O)O)ccc1N1CC2(CCN(Cc3cn(C(C)(C)C)nc3-c3ccc(F)c(F)c3F)CC2)OC1=O [Example 1-37, 4-(8-{[1-tert-Butyl-3-(2,3,4-trifluorophenyl)-1H-pyrazol-4-yl]methyl}-2-oxo-1-oxa-3,8-diazaspiro[4.5]dec-3-yl)-3-methylbenzoic acid, TFA salt]	1.59
COc1ccc(-c2nn(-c3ccccc3)cc2CN2CCCC3(CC2)CN(c2ccc(C(=O)O)cc2)C(=O)O3)cc1 (stereo not shown) [Example 2-15, 4-(8-{[3-(4-Methoxyphenyl)-1-phenyl-1H-pyrazol-4-yl]methyl}-2-oxo-1-oxa-3,8-diazaspiro[4.6]undec-3-yl)benzoic acid, TFA salt]	58.7
Cc1cc(-c2ccc(C(F)(F)F)nc2)c(CN2CCC3(CC2)CN(c2ccc(C(=O)O)cc2)C(=O)O3)cc1Cl [Example 4-26, 4-(8-{5-Chloro-4-methyl-2-[6-(trifluoromethyl)pyridin-3-yl]benzyl}-2-oxo-1-oxa-3,8-diazaspiro[4.5]dec-3-yl)benzoic acid, TFA salt]	9.35
CCOc1cc(CN2CCC3(CC2)CN(c2ccc(C(=O)O)cc2)C(=O)O3)c(-c2cc(F)c(F)cc2F)cc1C [Example 4-11, 4-{8-[(4-Ethoxy-2′,4′,5′-trifluoro-5-methylbiphenyl-2-yl)methyl]-2-oxo-1-oxa-3,8-diazaspiro[4.5]dec-3-yl}benzoic acid, TFA salt]	0.152
CCOc1cc(CN2CCC3(CC2)CN(c2ccc(C(=O)O)cc2Cl)C(=O)O3)c(-c2ccc(F)c(F)c2F)cc1C [Example 4-22, 3-Chloro-4-{8-[(4-ethoxy-2′,3′,4′-trifluoro-5-methylbiphenyl-2-yl)methyl]-2-oxo-1-oxa-3,8-diazaspiro[4.5]dec-3-yl}benzoic acid, TFA salt]	0.468
Cc1cc(CN2CCC3(CC2)CN(c2ccc(C(=O)O)cc2)C(=O)O3)cc2c1OCC2(C)C [Example 5-1, 4-{2-Oxo-8-[(3,3,7-trimethyl-2,3-dihydro-1-benzofuran-5-yl)methyl]-1-oxa-3,8-diazaspiro[4.5]dec-3-yl}benzoic acid, TFA salt]	2.38
CCOc1cc(CN2CCC3(CC2)CN(c2ccc(C(=O)O)c(C)c2)C(=O)O3)c(-c2ccc(F)c(F)c2F)cc1C [Example 4-12, 4-{8-[(4-Ethoxy-2′,3′,4′-trifluoro-5-methylbiphenyl-2-yl)methyl]-2-oxo-1-oxa-3,8-diazaspiro[4.5]dec-3-yl}-2-methylbenzoic acid, TFA salt]	0.188
CC(C)(C)n1cc(CN2CCC3(CC2)CN(c2ccc(C(=O)O)cc2)C(=O)O3)c(-c2ccc(F)cc2F)n1 [Example 1-30, 4-(8-{[1-tert-Butyl-3-(2,4-difluorophenyl)-1H-pyrazol-4-yl]methyl}-2-oxo-1-oxa-3,8-diazaspiro[4.5]dec-3-yl)benzoic acid, TFA salt]	1.95
O=C(O)c1ccc(N2CC3(CCN(Cc4cc(OC(F)(F)F)ccc4-c4ccc(F)c(F)c4F)CC3)OC2=O)cc1 [Example 4-17, 4-(2-Oxo-8-{[2′,3′,4′-trifluoro-4-(trifluoromethoxy)biphenyl-2-yl]methyl}-1-oxa-3,8-diazaspiro[4.5]dec-3-yl)benzoic acid, TFA salt]	0.165
CCOc1cc(CN2CCC3(CC2)CN(c2ccc(C(=O)O)cc2)C(=O)O3)cc2c(OC)cccc12 [Example 5-2, 4-{8-[(4-Ethoxy-8-methoxynaphthalen-2-yl)methyl]-2-oxo-1-oxa-3,8-diazaspiro[4.5]dec-3-yl}benzoic acid, TFA salt]	0.704
COc1cccc(-c2nn(-c3ccccc3)cc2CN2CCC3(CC2)CN(c2ccc(C(=O)O)cc2)C(=O)O3)c1 [Example 1-22, 4-(8-{[3-(3-Methoxyphenyl)-1-phenyl-1H-pyrazol-4-yl]methyl}-2-oxo-1-oxa-3,8-diazaspiro[4.5]dec-3-yl)benzoic acid, TFA salt]	4.87
COc1ccc2c(CN3CCC4(CC3)CN(c3ccc(C(=O)O)cc3)C(=O)O4)nn(C3CC3)c2c1 [Example 6-12, 4-{8-[(1-Cyclopropyl-6-methoxy-1H-indazol-3-yl)methyl]-2-oxo-1-oxa-3,8-diazaspiro[4.5]dec-3-yl}benzoic acid, TFA salt]	216
CCOc1ccc(-c2ccc(F)cc2F)c(CN2CCC3(CC2)CN(c2ccc(C(=O)O)cc2)C(=O)O3)c1 [Example 4-3, 4-{8-[(4-Ethoxy-2′,4′-difluorobiphenyl-2-yl)methyl]-2-oxo-1-oxa-3,8-diazaspiro[4.5]dec-3-yl}benzoic acid, TFA salt]	0.49
O=C(O)c1ccc(N2CC3(CCN(Cc4cn(-c5ccccc5)nc4-c4ccc(F)c(Cl)c4)CC3)OC2=O)cc1 [Example 1-34, 4-(8-{[3-(3-Chloro-4-fluorophenyl)-1-phenyl-1H-pyrazol-4-yl]methyl}-2-oxo-1-oxa-3,8-diazaspiro[4.5]dec-3-yl)benzoic acid, TFA salt]	4.67
O=C(O)c1ccc(N2CC3(CCN(Cc4cc(C(F)(F)F)ccc4-c4ccc(F)nc4)CC3)OC2=O)cc1 [Example 4-10, 4-{8-[2-(6-Fluoropyridin-3-yl)-5-(trifluoromethyl)benzyl]-2-oxo-1-oxa-3,8-diazaspiro[4.5]dec-3-yl}benzoic acid, TFA salt]	1.49
